Test results as given in PubChem BioAssay AID720589 (Broad Institute, 2013).
Calls of active or inactive are those of the source.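 The calls were made as follows: active = fitted curve drops below -35% activity at a concentration within twice the top valid tested dose; inconclusive = no clear call, values can overlap the other calls; inactive = signal rising instead of falling, among other cases.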

assay: HepG2 hepatoma cell cytotoxicity, dose response, cytotoxicity control, CellTiter-Glo luminescence, cherry-pick, set 3 (AID 720589); conditions: HepG2 viability, ATP luminescence (CellTiter-Glo), 72 h; at 0.011 µM; hits give low values; 0% = untreated, negative = ATP loss

Structure (SMILES)	max activity
CCOc1ccc(-c2cc(CCCC(=O)N3CCN(c4ccc(OC)cc4)CC3)no2)cc1	-25.4% (inactive)
CCNC(=O)c1cccc(S(=O)(=O)N2CCCCCC2)c1	-31.4% (inactive)
COc1ccc(C(=O)Nc2cccc(C(=O)N/N=C/c3ccc(OC)cc3OC)c2)cc1	23.8% (inactive)
Cc1c(-c2nc(-c3ccc(C(C)(C)C)cc3)no2)n(C)oc1=O	-27.3% (inactive)
COc1ccc(C=NNc2nc3ccccc3s2)cc1	-25.7% (inactive)
C/C(=N\N(c1ccccc1)c1ccccc1)c1ccco1	17.6% (inactive)

same assay, conditions: HepG2 viability, ATP luminescence (CellTiter-Glo), 72 h; at 0.012 µM; hits give low values; 0% = untreated, negative = ATP loss

Structure (SMILES)	max activity
CN(C)C(=O)c1ccc(-c2ccccc2[C@@H]2[C@@H](CO)N(C(=O)C3CC3)[C@H]2C#N)cc1	20.5% (inactive)

same assay, conditions: HepG2 viability, ATP luminescence (CellTiter-Glo), 72 h; at 0.035 µM; hits give low values; 0% = untreated, negative = ATP loss

Structure (SMILES)	max activity
O=C(CCCN1C(=O)/C(=C/c2ccccc2Cl)SC1=S)NNC(=O)c1ccc(Cl)cc1Cl	-21.5% (inactive)
Nc1ccc2oc(-c3cc(Br)ccc3Cl)nc2c1	-30.5% (inactive)
O=c1c2ccccc2oc2ccc(C#CC3(O)CCCCC3)cc12	-33.7% (inactive)
COc1ccc(/C=C2\SC(=S)N(CCCC(=O)NNC(=O)c3ccccc3O)C2=O)cc1	-21.1% (inactive)
C[C@@H]1CN([C@H](C)CO)S(=O)(=O)c2ccc(C#Cc3ccncc3)cc2O[C@@H]1CN(C)C(=O)Nc1ccc2c(c1)OCO2	-31.9% (inactive)
CC(=O)c1ccc(N=Nc2ccc(C)cc2)cc1	-7.42% (inactive)
COc1ccc(/C=C2\SC(=O)N(CCCC(=O)Nc3ccc(C(=O)O)cc3)C2=O)cc1	21% (inactive)

same assay, conditions: HepG2 viability, ATP luminescence (CellTiter-Glo), 72 h; at 0.1 µM; hits give low values; 0% = untreated, negative = ATP loss

Structure (SMILES)	max activity
CN(C(=O)COC(=O)c1cc(-c2ccccc2Cl)nc2ccccc12)C1CCS(=O)(=O)C1 (configuration not stated)	-27.5% (inactive)
CCCNC(=O)N1[C@H](C#N)[C@H](c2ccc(C#Cc3ccc(F)cc3)cc2)[C@H]1CO	-28.6% (inactive)
CCn1c(C)cc(C(=O)CN2C(=O)c3ccccc3S2(=O)=O)c1C	-11.5% (inactive)

same assay, conditions: HepG2 viability, ATP luminescence (CellTiter-Glo), 72 h; at 0.3 µM; hits give low values

Structure (SMILES)	max activity
O=C1NC(=O)N(CCc2ccc(F)cc2)C(=O)/C1=C/C=C/c1ccccc1	-15.6% (inactive)

same assay, conditions: HepG2 viability, ATP luminescence (CellTiter-Glo), 72 h; at 0.3 µM; hits give low values; 0% = untreated, negative = ATP loss

Structure (SMILES)	max activity
C[C@@H]1CN([C@H](C)CO)C(=O)c2cc(NS(=O)(=O)c3ccc(Cl)cc3)ccc2O[C@@H]1CN(C)Cc1ccc(Cl)c(Cl)c1	-36.6% (inactive)
CCOc1ccccc1CNC(=O)c1ccc(Sc2ccc(Cl)cc2)c(NC(C)=O)c1	-29.5% (inactive)
O=C(NC1CCCC1)C(c1ccccc1)n1c(CSCCOc2ccccc2)nc2ccccc21 (configuration not stated)	-34.7% (inactive)
COc1ccc(C2=Nn3c(nnc3-c3ccccc3F)SC2)cc1OC1CCOC1 (configuration not stated)	-28.9% (inactive)
CC(C)(C)C(=O)Nc1ccc(N=Nc2ccccc2)cc1	-12.3% (inactive)
C=CCn1c(O)c(N=Nc2ccccc2)c2ccccc21	-21.6% (inactive)

same assay, conditions: HepG2 viability, ATP luminescence (CellTiter-Glo), 72 h; at 0.9 µM; hits give low values; 0% = untreated, negative = ATP loss

Structure (SMILES)	max activity
O=C1C(=O)N(CCS(=O)(=O)c2ccccc2)c2ccc(Cl)cc21	-12.3% (inactive)
Cc1c(Cl)cccc1NC(=O)CCC(=O)N/N=C/c1ccc[nH]1	21.7% (inactive)
C[C@@H]1CN([C@H](C)CO)C(=O)c2cc(NC(=O)CCCCCC(=O)Nc3ccccc3N)ccc2O[C@H]1CN(C)S(=O)(=O)c1ccc(Cl)cc1	-26.7% (inactive)
C[C@@H]1CN([C@H](C)CO)C(=O)c2cc(NC(=O)CCCCCC(=O)Nc3ccccc3N)ccc2O[C@@H]1CN(C)Cc1ccc(Cl)c(Cl)c1	13.5% (inactive)
COc1cc(/C=N\Nc2nc(-c3ccc(C)cc3)c(NC(C)=O)s2)ccc1O	-20.6% (inactive)

same assay, conditions: HepG2 viability, ATP luminescence (CellTiter-Glo), 72 h; at 2.85 µM; hits give low values; 0% = untreated, negative = ATP loss

Structure (SMILES)	max activity
CCOC(=O)Cc1csc(NC(=S)NC(=O)c2ccc(C)cc2)n1	11.3% (inactive)
Cc1ccccc1N=CC1=C(O)c2ccccc2C1=O	18.8% (inactive)
COc1ccc(NC(=O)c2cc3ccccc3oc2=O)cc1	-36.9% (inactive)
O=C(O)c1cccc(N/N=C/c2ccc(OC(F)(F)F)cc2)c1	-28.9% (inactive)
Oc1c(Cl)cc(Cl)c(Cl)c1Cc1c(O)c(Cl)cc(Cl)c1Cl	-40.1% (inactive)
COc1ccc(Nc2oc(COc3ccccc3OC)nc2C#N)cc1	-51% (inactive)
C(=Cc1c[nH]c2ccccc12)c1ccc2ccccc2n1	-21.4% (inactive)
Cc1ccsc1/C=N/Nc1cccc(C(=O)O)c1	-32.4% (inactive)
COc1cc(OC)cc(-c2cc3nc(C)c(CCC(=O)NCc4ccccc4)c(C)n3n2)c1	23.9% (inactive)
O=C1c2ccc3c4c(ccc(c24)C(=O)N1c1cccc(O)c1)C(=O)N(c1cccc(O)c1)C3=O	-25.5% (inactive)

same assay, conditions: HepG2 viability, ATP luminescence (CellTiter-Glo), 72 h; at 3 µM; hits give low values; 0% = untreated, negative = ATP loss

Structure (SMILES)	max activity
CCNC(=O)c1cc2c(c(-c3cccc(-c4cccc(OC)c4)c3)n1)[C@H](CCO)N([S@@](=O)C(C)(C)C)C2	-28.9% (inactive)

same assay, conditions: HepG2 viability, ATP luminescence (CellTiter-Glo), 72 h; at 8 µM; hits give low values; 0% = untreated, negative = ATP loss

Structure (SMILES)	max activity
CCOc1cc2[nH]c(=S)n(Cc3ccc(C(=O)N4CCN(C)CC4)cc3)c(=O)c2cc1OCC	-29.8% (inactive)
COC(=O)C[C@H]1CC[C@@H](NC(=O)Nc2ccc(C(F)(F)F)cc2)[C@H](CO)O1	-14.3% (inactive)
COc1ccc(C2=Nn3c([n+](C)c4ccccc43)SC2)cc1	-28.7% (inactive)
COc1ccc(N=C(NN)c2ccc3ccccc3n2)cc1	-15.2% (inactive)
Cc1ccc2c(=O)n3c(nc2c1)C(Cc1ccc(O)cc1)NC(=O)c1cc2ccccc2cc1-3 (configuration not stated)	-16.9% (inactive)
COC(=O)c1cccc(NC(=O)NC(=O)c2ccc(Cl)cc2)c1	-15.3% (inactive)
CC(=O)c1ccc(N(C(=O)Cn2nnc3ccccc32)C(C(=O)NCc2ccccc2)c2ccccn2)cc1 (configuration not stated)	-38% (inactive)
O=C(O)c1ccc(N/N=C/c2c(F)cccc2Cl)cc1	-13.6% (inactive)
CC(C)c1ccccc1NC(=O)COC(=O)CCN1C(=O)/C(=C\C=C\c2ccccc2)SC1=S	-10% (inactive)
C[C@@H]1CN([C@@H](C)CO)C(=O)c2cccc(NC(=O)Nc3cccc4ccccc34)c2O[C@@H]1CN(C)Cc1ccc(C(=O)Nc2ccccc2N)cc1	-36.9% (inactive)

same assay, conditions: HepG2 viability, ATP luminescence (CellTiter-Glo), 72 h; at 23.5 µM; hits give low values; 0% = untreated, negative = ATP loss

Structure (SMILES)	max activity
C[C@H](CO)N1C[C@H](C)[C@H](CN(C)Cc2ccccc2)Oc2ccc(NC(=O)CCCCCC(=O)Nc3ccccc3N)cc2CC1=O	-23.9% (inactive)
CCCNC(=O)N1[C@H](C#N)[C@H](c2ccc(C#Cc3cccc(F)c3)cc2)[C@H]1CO	22.8% (inactive)
N#C[C@H]1N[C@H](CO)[C@H]1c1ccc(C#Cc2ccccc2F)cc1	-26.9% (inactive)

same assay, conditions: HepG2 viability, ATP luminescence (CellTiter-Glo), 72 h; at 26 µM; hits give low values

Structure (SMILES)	max activity
O=C1NC(=S)NC(=O)C1=Cc1cccn1-c1ccc(O)cc1	-27.6% (inactive)

same assay, conditions: HepG2 viability, ATP luminescence (CellTiter-Glo), 72 h; at 26 µM; hits give low values; 0% = untreated, negative = ATP loss

Structure (SMILES)	max activity
CCCN(C)C[C@H]1Oc2ncc(-c3ccccc3)cc2C(=O)N([C@@H](C)CO)C[C@H]1C	18.2% (inactive)
CC(C)N1C/C(=C/c2cccnc2)C(=O)/C(=C/c2cccnc2)C1	-29.5% (inactive)
Cc1nc2ncccn2c1-c1csc(Nc2ccc(O)cc2)n1	-23.1% (inactive)
C=CCOc1ccccc1C(=O)/C=C1/C(=O)Nc2ccccc21	-31.5% (inactive)
C[C@@H]1CN([C@@H](C)CO)C(=O)Cc2cc(N(C)C)ccc2O[C@@H]1CN(C)Cc1ccccc1	-20.7% (inactive)
C(=N\Nc1ccc2ccccc2n1)/c1ccc2c(c1)OCCO2	-26.2% (inactive)
COc1ccc(-c2cn(-c3ccc(OC)cc3)c3[n+]2-c2ccccc2CC3)cc1	-23.2% (inactive)
Cc1ccc(N2C(=O)c3cccc4c(N)ccc(c34)C2=O)c2cccnc12	-20.7% (inactive)
CC(C)(C)c1ccc(Cn2c(=O)cnc3ccccc32)cc1	-40.9% (inactive)
O=c1c(Cl)cc(Cl)nn1-c1ccccc1	-34.4% (inactive)
O=C(Nc1nc(-c2ccc(F)c(F)c2)cs1)c1ccc(OCC2CCCO2)cc1 (configuration not stated)	-28.7% (inactive)
CC(C)(C)C(=O)Cn1ncc(Cl)c(Cl)c1=O	-23.7% (inactive)
CCOc1ccc(C(c2c(NC(=O)c3ccccc3)sc(C)c2C)N2CCN(CCO)CC2)cc1 (configuration not stated)	-11.9% (inactive)
COc1ccc(-c2nc3c(s2)CCc2onc(-c4ccc(OC)cc4)c2-3)cc1	-25.8% (inactive)
CC(=O)ON=C1C=CC(=C(C#N)c2ccccc2)C=C1	-27.6% (inactive)
O=C(O)c1ccc(N/N=C/c2ccc3nccnc3c2)cc1	-27.1% (inactive)
C(=Cc1cnc2ccccc2n1)c1ccc2c(c1)OCO2	-50.5% (inactive)
Cc1ccccc1S(=O)(=O)N1CC[C@@H]2[C@@H](CO)Nc3ccc(-c4ccc(C#N)cc4)cc3[C@@H]21	-21.8% (inactive)
CC1=NC(=O)C(N=Nc2cccc(C(=O)O)c2)N1c1ccccc1 (configuration not stated)	-23.4% (inactive)
Cc1nn(-c2ccc(F)cc2)c2nc(N)c(C#N)c(-c3ccc(O)c(O)c3)c12	-39.7% (inactive)
Cc1ccsc1/C=N/Nc1ccc(C(=O)O)cc1	-27.6% (inactive)
N#CC1=C(N)Oc2cc(N)ccc2C1c1cccc(Br)c1 (configuration not stated)	-27% (inactive)
CO[C@H]1CN(C)C(=O)c2cc(NC(=O)c3ccc(Oc4ccccc4)cc3)ccc2OC[C@H](C)NC[C@@H]1C	-95.1% (inactive)
